Results from ChEMBL document CHEMBL5096204 (J Med Chem, 2021).

Tests used:
[1] = Lipophilicity, logD of the compound in octanol/buffer at pH 7.4 by shake flask method; type: physicochemical
[2] = Dissociation constant, pKa of the compound; type: physicochemical
[3] = Volume of distribution in Han-wistar rat at […], iv; type: ADME; details: in vivo, dose 1.5 µmol/kg
[4] = Volume of distribution in SCID mouse at 5 umol/kg, iv; type: ADME; details: in vivo, dose 5 µmol/kg
[5] = Drug metabolism in SCID mouse plasma assessed as 1-Isopropyl-5-(2-(piperidin-4-yl)-1H-pyrrolo[2,3-b]pyridin-4-yl)-pyridin-2(1H)-one metabolite formation at 0.5 mg/kg, iv administered as cassette dose; type: ADME, organism-based; details: in vivo
[6] = Apparent permeability of compound from apical to basolateral side in human Caco-2 cells; type: ADME, cell-based

COc1cc(F)ccc1-c1ccnc2[nH]c(-c3ccc(CN4CCOCC4)cc3)cc12
logD [1]: 4.4

CNC(=O)CN1CCC(c2cc3c(-c4ccc(=O)n(C(C)C)c4)ccnc3[nH]2)CC1
logD [1]: 2.2
pKa [2]: 6.9
Vd [3]: 2.6 L/kg

COc1cc(F)ccc1-c1ccnc2[nH]c(C3CCN(C(C)=O)CC3)cc12
logD [1]: 3.4
Vd [3]: 1.7 L/kg

CC(C)n1cc(-c2ccnc3[nH]c(C4CCN(CC(=O)N(C)C)CC4)cc23)ccc1=O
pKa [2]: 7.9
Vd [3]: 5.9 L/kg

COc1cc(C(=O)N2CCCC2)ccc1-c1ccnc2[nH]c(-c3ccc(CN4CCOCC4)cc3)nc12
logD [1]: 2.6

COc1cc(F)ccc1-c1ccnc2[nH]c(-c3ccc(CN4CCOCC4)cc3)nc12
logD [1]: 3.7

COc1cc(C(=O)N2CCCC2)ccc1-c1ccnc2[nH]c(C3CCOCC3)cc12
logD [1]: 3
Vd [3]: 0.8 L/kg

CN(C)C(=O)CN1CCC(c2cc3c(-c4ccc(=O)n(C5CCC5)c4)ccnc3[nH]2)CC1
logD [1]: 1.9

COc1cc(F)ccc1-c1ccnc2[nH]c(C3CCN(CCO)CC3)cc12
logD [1]: 2.4
pKa [2]: 8.5
Vd [3]: 12 L/kg

CN(C)C(=O)CN1CCC(c2cc3c(-c4ccc(=O)n(CC5CCOCC5)c4)ccnc3[nH]2)CC1
logD [1]: 1.4

CC(C)Cn1cc(-c2ccnc3[nH]c(C4CCN(CC(=O)N(C)C)CC4)cc23)ccc1=O
logD [1]: 2

CC(C)n1cc(-c2ccnc3[nH]c(C4CCN(CC(=O)N5CCCC5)CC4)cc23)ccc1=O
pKa [2]: 7.8
Vd [3]: 3.9 L/kg
Vd [4]: 1.2 L/kg
Drug metabolism [5]: Metabolite_Notdetected

CC(C)n1cc(-c2ccnc3[nH]c(C4CCN(CC(=O)N5CCCCC5)CC4)cc23)ccc1=O
pKa [2]: 7.8
Vd [3]: 8.1 L/kg
Vd [4]: 1.5 L/kg
Drug metabolism [5]: Metabolite_Notdetected

COCCn1cc(-c2ccnc3[nH]c(C4CCN(CC(=O)N(C)C)CC4)cc23)ccc1=O
logD [1]: 1.1

COc1cc(C(=O)N2CCCC2)ccc1-c1ccnc2[nH]c(C3CCN(C(C)=O)CC3)cc12
logD [1]: 2.5
Vd [3]: 0.9 L/kg

CC(C)n1cc(-c2ccnc3[nH]c(C4CCN(CC(=O)N(C)C)CC4)cc23)cnc1=O
logD [1]: 0.4
Vd [3]: 2.9 L/kg

CC(C)n1cc(-c2ccnc3[nH]c(C4CCN(Cc5cccs5)CC4)cc23)ccc1=O
logD [1]: 3.4
pKa [2]: 6.5
Vd [3]: 1.6 L/kg

COc1cc(F)ccc1-c1ccnc2[nH]c(C3CCNCC3)nc12
logD [1]: 0

Cc1nc2ccc(-c3ccnc4[nH]c(C5CCN(CC(=O)N(C)C)CC5)cc34)cc2n1C(C)C
logD [1]: 3.1

COc1cc(F)ccc1-c1ccnc2[nH]c(C3CCNCC3)cc12
logD [1]: 1.2
pKa [2]: 10.2
Vd [3]: 10 L/kg
Vd [4]: 14 L/kg

CSCCn1cc(-c2ccnc3[nH]c(C4CCN(CC(=O)N(C)C)CC4)cc23)ccc1=O
logD [1]: 1.7

CC(C)n1cc(-c2ccnc3[nH]c(C4CCN(CC(F)F)CC4)cc23)ccc1=O
logD [1]: 2.9
pKa [2]: 6
Vd [3]: 1.8 L/kg

COc1cc(=O)n(C)cc1-c1ccnc2[nH]c(C3CCN(CC(=O)N(C)C)CC3)cc12
logD [1]: 0.7

CN(C)C(=O)CN1CCC(c2cc3c(-c4ccc(=O)n(C)c4)ccnc3[nH]2)CC1
logD [1]: 1.1

COc1cc(C(=O)N2CCCC2)ccc1-c1ccnc2[nH]c(C3CCN(CCO)CC3)cc12
logD [1]: 1.3

CC(=O)N1CCC(c2cc3c(-c4ccc(=O)n(C(C)C)c4)ccnc3[nH]2)CC1
logD [1]: 2.1

COc1cc(F)ccc1-c1ccnc2[nH]c([C@H]3CC[C@H](NC(C)=O)CC3)cc12
logD [1]: 3.8
Vd [3]: 2.5 L/kg

COc1cc(C(=O)N2CCCC2)ccc1-c1ccnc2[nH]c(C3CCNCC3)cc12
pKa [2]: 10.2
Vd [3]: 5.8 L/kg
Papp A→B [6]: < 0.01 ×10⁻⁶ cm/s

CCn1cc(-c2ccnc3[nH]c(C4CCN(CC(=O)N(C)C)CC4)cc23)ccc1=O
logD [1]: 1.2

COc1cc(F)ccc1-c1ccnc2[nH]c(C3CCN(C)CC3)cc12
logD [1]: 2.6
pKa [2]: 9
Vd [3]: 5.2 L/kg

CN(C)C(=O)CN1CCC(c2cc3c(-c4ccc(=O)n(CCC5CCOCC5)c4)ccnc3[nH]2)CC1
logD [1]: 1.5

COc1cc(F)ccc1-c1ccnc2[nH]c(C3CCC(NC(C)=O)C3)nc12 (centres undefined)
logD [1]: 2.3

CC(C)n1nc(-c2ccnc3[nH]c(C4CCN(CC(=O)N(C)C)CC4)cc23)ccc1=O
logD [1]: 2
pKa [2]: 7.6
Vd [3]: 2.9 L/kg

COc1cc(F)ccc1-c1ccnc2[nH]c(C3CCN(CC(=O)N(C)C)CC3)cc12
logD [1]: 2.9
pKa [2]: 8
Vd [3]: 2.3 L/kg

COc1cc(F)ccc1-c1ccnc2[nH]c(C3CCOCC3)cc12
logD [1]: 3.9

CN(C)C(=O)CN1CCC(c2cc3c(-c4ccc(=O)n(C5CCOCC5)c4)ccnc3[nH]2)CC1
logD [1]: 1.1

O=C(c1ccc(-c2ccnc3[nH]c(-c4ccc(CN5CCOCC5)cc4)nc23)cc1)N1CCCC1
logD [1]: 3.2

CC(C)n1cc(-c2ccnc3[nH]c(C4CCNCC4)cc23)ccc1=O
logD [1]: -0.2
